Measured values taken from patent US20240101576A1, “HETEROCYCLIC INHIBITORS OF EGFR AND/OR HER2, FOR USE IN THE TREATMENT OF CANCER” (Scorpion Therapeutics, Inc., priority 2020, published 2024).

Legend:
Type in all cases: cell-based
[1] = target: T1, EGFR L858R/C797S (Ba/F3 cells) (Homo sapiens, UniProt P00533, C797S/L858R); experiment: Inhibitor activity on EGFR phosphorylation (pEGFR AlphaLISA, 2 h), Ba/F3 EGFR L858R/C797S
T1 construct: expressed in transfected cells; host or cells: Ba/F3 (murine pro-B cells), retroviral transduction, puromycin selection, IL3-independent pool
From the text: (§1) Example B. Inhibitor Activity on EGFR phosphorylation (pEGFR)
(§2) EGFR mutant Ba/F3 cells were generated by transduction with retrovirus containing vectors expressing EGFR L858R, EGFR exon 19del, EGFR L858R/C797S, EGFR exon 20 NPG Ins D770_N771, EGFR exon 20 ASV Ins V769_D770, or EGFR exon 20 SVD Ins D770_N771 genes along with a puromycin selection marker. Transduced cells are selected with puromycin for 7 days and are then be transferred into culture media without Interleukin 3 (IL3). Surviving cells are confirmed to express EGFR by Western blot and maintained as a pool. CUTO14 cells were obtained from Dr. Robert C. Doebele at the University of Colorado. The IC50 date are included in Table 6 and Table 7.
(§3) 1.1 Cells are harvested from flask into cell culture medium and the cell number counted.
(§4) 1.2 Cells are diluted with culture medium to the desired density and 40 μL of cell suspension is added into each well of 384-well cell culture plate and the seeding density is 50K cells/well (Ba/F3) or 12.5K cells/well (CUTO14).
(§5) 2 Compound Preparation and Treatment
(§6) 2.1 Test compounds are dissolved to 10 mM in a DMSO stock solution. 45 μL of stock solution is transferred to a 384 polypropylene plate (pp-plate). Perform 3-fold, 10-point dilution via transferring 15 μL compound into 30 μL DMSO using a TECAN (EVO200) liquid handler.
(§7) 2.2 Spin plates at room temperature at 1,000 RPM for 1 minute.
(§8) 2.3 Transfer 5 nL of diluted compound from compound source plate into the cell plate.
(§9) 2.4 After compound treatment for 2 hours, perform pEGFR detection by AlphaLISA for compound treatment plates as described in “Detection” section.
(§10) 3 Detection by pEGFR AlphaLISA (Perkin-Elmer)
(§11) 3.1 Plates are removed from incubators and equilibrated at room temperature for 10 minutes, and media was removed
(§12) 3.2 10 μL of lysis buffer is added and plates shaken at 600 rpm for 1 hr.
(§13) 3.3 Prepare acceptor mix just before use and dispense 5 μL of acceptor mix to all the wells. Shake 350 rpm for Ihr in the dark
(§14) 3.4 Prepare donor mix under low light conditions prior to use. Dispense 5 μL of donor mix to all the wells. Mix well on the shaker, seal and wrap in aluminum foil and incubate 1.5 hrs at room temperature in the dark
(§15) 3.5 Transfer 18.5 μL mixture to OptiPlate 384, and read using an Envision. The IC50 date were included in Table 6 and Table 7.

[2] = target: T1, EGFR L858R/C797S (Ba/F3 cells); experiment: Inhibitor activity on EGFR-dependent cell growth (CellTiter-Glo, 72 h), Ba/F3 EGFR L858R/C797S; conditions: read-out: BaF3 L858R/C797S IC50
From the text: Example A. Inhibitor Activity on EGFR-Dependent Cell Growth
Cell lines are generated by transducing Ba/F3 cells with retroviruses containing vectors with EGFR WT, EGFR L858R, EGFR exon 19del, EGFR L858R/C797S, EGFR exon 20 NPG Ins D770_N771, EGFR exon 20 ASV Ins V769_D770, EGFR exon 20 SVD Ins D770_N771, or EGFR exon 20 FQEA Ins A763_V764 genes and a puromycin selection marker. Transduced cells are selected with puromycin for 7 days and are then be transferred into culture media without Interleukin 3 (IL3). EGFR WT cells are maintained with supplemental EGF. Surviving cells are confirmed to express EGFR by Western blot and maintained as a pool. The IC50 date were included in Table 6 and Table 7.
as §3
1.2 Cells are diluted with culture medium to the desired density and 40 μL of cell suspension is added into each well of 384-well cell culture plate and the seeding density is 800 (FQEA, exon 19del), 600 (WT, NPG, L858R/C797S), or 400 (ASV, SVD, L858R) cells/well.
as §5, §6, §7
2.3 Transfer 120 nL of diluted compound from compound source plate into the cell plate.
2.4 After compound treatment for 72 hours, perform CTG detection for compound treatment plates as described in “Detection” section.
3.1 Plates are removed from incubators and equilibrated at room temperature for 15 minutes.
3.2 Thaw the CellTiter Glo reagents and allow to equilibrate to room temperature before the experiment.
3.3 Add 40 μL of CellTiter-Glo reagent into each well (at 1:1 to culture medium). Then place the plates at room temperature for 30 min followed by reading on EnVision.
4.1 Inhibition activity is calculated following the formula below:
% Inhibition=100×(LumHC−LumSample)/(LumHC−LumLC) • where HC is obtained from cells treated with 0.1% DMSO only; and LC is obtained from culture medium only.
4.2 2. Calculate the IC50 by fitting the Curve using Xlfit (v5.3.1.3), equation 201.
Y=Bottom+(Top−Bottom)/(1+10^((Log IC50−X)*HillSlope))

EGFR L858R (Ba/F3 cells) [3] = target: T2, EGFR L858R (Ba/F3 cells) (Homo sapiens, UniProt P00533, L858R); experiment: Inhibitor activity on EGFR-dependent cell growth (CellTiter-Glo, 72 h), Ba/F3 EGFR L858R; conditions: read-out: BaF3 L858R IC50
T2 construct: expressed in transfected cells; host or cells: Ba/F3 (murine pro-B cells), retroviral transduction, puromycin selection, IL3-independent pool
How it was run: (§16)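 Ba/F3 cells engineered with each EGFR variant were plated (400, 600 or 800 per well for L858R, L858R/C797S, and exon 19del/FQEA). They were exposed for 72 hours to compound serially diluted from a 10 mM DMSO stock. Remaining viable cells were quantified by CellTiter-Glo, and IC50 was curve-fitted.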

EGFR L858R (Ba/F3 cells) [4] = target: T2, EGFR L858R (Ba/F3 cells); experiment: Inhibitor activity on EGFR phosphorylation (pEGFR AlphaLISA, 2 h), Ba/F3 EGFR L858R
From the text: as §1, §2, §3, §4, §5, §6, §7, §8, §9, §10, §11, §12, §13, §14, §15

EGFR WT (Ba/F3 cells) = target: T3, EGFR WT (Ba/F3 cells) (Homo sapiens, UniProt P00533); experiment: Inhibitor activity on EGFR-dependent cell growth (CellTiter-Glo, 72 h), Ba/F3 EGFR WT; conditions: read-out: BaF3 WT IC50
T3 construct: expressed in transfected cells; host or cells: Ba/F3 (murine pro-B cells), retroviral transduction, puromycin selection, maintained with EGF
T3 sequence (P00533 25-1210): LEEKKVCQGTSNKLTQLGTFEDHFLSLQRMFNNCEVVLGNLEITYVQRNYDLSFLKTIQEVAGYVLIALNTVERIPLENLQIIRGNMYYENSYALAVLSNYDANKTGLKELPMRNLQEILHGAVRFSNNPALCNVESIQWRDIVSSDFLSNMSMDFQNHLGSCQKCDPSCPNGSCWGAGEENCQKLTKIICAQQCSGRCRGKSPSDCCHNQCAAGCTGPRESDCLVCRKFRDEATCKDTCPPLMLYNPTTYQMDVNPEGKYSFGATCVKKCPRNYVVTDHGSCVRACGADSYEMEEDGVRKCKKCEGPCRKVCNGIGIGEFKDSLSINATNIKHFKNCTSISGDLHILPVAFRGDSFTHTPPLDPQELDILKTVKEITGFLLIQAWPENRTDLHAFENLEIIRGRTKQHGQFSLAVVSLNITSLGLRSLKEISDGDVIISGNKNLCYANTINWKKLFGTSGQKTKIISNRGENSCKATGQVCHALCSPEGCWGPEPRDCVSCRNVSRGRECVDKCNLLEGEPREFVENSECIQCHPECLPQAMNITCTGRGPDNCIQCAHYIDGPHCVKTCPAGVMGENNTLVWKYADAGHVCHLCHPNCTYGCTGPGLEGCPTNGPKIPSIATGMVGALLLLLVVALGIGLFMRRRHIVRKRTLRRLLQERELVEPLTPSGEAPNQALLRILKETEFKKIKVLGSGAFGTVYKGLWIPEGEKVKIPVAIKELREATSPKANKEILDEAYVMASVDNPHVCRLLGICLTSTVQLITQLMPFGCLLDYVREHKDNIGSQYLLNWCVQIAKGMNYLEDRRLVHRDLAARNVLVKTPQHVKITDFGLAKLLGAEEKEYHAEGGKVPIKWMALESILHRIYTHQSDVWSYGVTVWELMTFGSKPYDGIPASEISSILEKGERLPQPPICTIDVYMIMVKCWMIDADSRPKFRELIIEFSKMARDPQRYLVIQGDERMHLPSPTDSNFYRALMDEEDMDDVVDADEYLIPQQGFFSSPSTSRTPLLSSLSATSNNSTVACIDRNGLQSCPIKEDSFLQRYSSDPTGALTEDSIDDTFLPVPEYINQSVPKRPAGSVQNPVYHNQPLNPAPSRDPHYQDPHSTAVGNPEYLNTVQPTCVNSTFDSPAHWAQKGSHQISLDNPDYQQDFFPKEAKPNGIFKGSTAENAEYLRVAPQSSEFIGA
How it was run: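 This growth assay used Ba/F3 cells that depend on wild-type EGFR and are kept in EGF without IL3. Compounds were made up as 10 mM DMSO stocks and diluted 3-fold over 10 points. 120 nL went onto 600 cells/well. After 72 hours, 40 μL CellTiter-Glo was added and luminescence read on EnVision after 30 min.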

[5] = target: T4, EGFR exon 20 ASV Ins V769_D770 (Ba/F3 cells) (Homo sapiens, UniProt P00533, INS769ASV); experiment: Inhibitor activity on EGFR-dependent cell growth (CellTiter-Glo, 72 h), Ba/F3 EGFR exon 20 ASV Ins; conditions: read-out: BaF3 ASV IC50
T4 construct: expressed in transfected cells; host or cells: Ba/F3 (murine pro-B cells), retroviral transduction, puromycin selection, IL3-independent pool
T4 sequence (P00533 with tags, fused parts or gaps INS769ASV): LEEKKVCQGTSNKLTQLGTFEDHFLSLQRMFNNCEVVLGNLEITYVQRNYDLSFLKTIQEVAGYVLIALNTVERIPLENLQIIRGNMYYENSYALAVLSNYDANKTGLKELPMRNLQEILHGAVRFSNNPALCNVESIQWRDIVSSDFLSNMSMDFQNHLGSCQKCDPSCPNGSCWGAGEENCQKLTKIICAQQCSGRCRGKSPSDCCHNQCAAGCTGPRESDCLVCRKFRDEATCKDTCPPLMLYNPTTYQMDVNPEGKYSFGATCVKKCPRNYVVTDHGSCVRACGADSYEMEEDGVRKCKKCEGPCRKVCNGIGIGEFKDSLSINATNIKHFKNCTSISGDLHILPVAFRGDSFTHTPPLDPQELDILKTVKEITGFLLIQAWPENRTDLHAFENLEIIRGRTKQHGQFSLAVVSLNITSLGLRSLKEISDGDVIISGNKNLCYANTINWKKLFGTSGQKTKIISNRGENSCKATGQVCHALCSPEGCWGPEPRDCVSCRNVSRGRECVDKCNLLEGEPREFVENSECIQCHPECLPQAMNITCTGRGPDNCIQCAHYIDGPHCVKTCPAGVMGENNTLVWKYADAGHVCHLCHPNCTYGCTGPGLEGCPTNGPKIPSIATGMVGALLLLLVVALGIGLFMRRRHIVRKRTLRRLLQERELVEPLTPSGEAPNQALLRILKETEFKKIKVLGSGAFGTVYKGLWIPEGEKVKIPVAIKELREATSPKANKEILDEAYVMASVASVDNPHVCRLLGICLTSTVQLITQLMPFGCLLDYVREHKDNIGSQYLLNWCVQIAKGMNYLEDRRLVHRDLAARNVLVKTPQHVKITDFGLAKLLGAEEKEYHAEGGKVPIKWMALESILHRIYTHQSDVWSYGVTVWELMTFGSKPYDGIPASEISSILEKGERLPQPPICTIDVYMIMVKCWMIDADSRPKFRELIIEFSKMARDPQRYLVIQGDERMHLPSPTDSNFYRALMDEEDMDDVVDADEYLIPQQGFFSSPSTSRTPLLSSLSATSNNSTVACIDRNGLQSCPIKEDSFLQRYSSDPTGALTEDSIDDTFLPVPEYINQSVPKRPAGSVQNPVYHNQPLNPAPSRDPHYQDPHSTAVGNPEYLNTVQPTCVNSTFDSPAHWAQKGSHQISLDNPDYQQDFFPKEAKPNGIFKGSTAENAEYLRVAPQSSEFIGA
How it was run: (§17)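 IC50s derive from a sigmoidal dose–response fit of CellTiter-Glo signal. The signal was normalised between […]-treated cells and cell-free medium. Ba/F3 mutant-EGFR cells, seeded at 400–800/well depending on the line, had 72 h of exposure to a 10-point, 3-fold compound series.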

[6] = target: T5, EGFR exon 19del (Ba/F3 cells) (Homo sapiens, UniProt P00533); experiment: Inhibitor activity on EGFR-dependent cell growth (CellTiter-Glo, 72 h), Ba/F3 EGFR exon 19del; conditions: Ba/F3 EGFR exon 19del cell growth, read-out: BaF3 Del19 IC50
T5 sequence (P00533 with tags, fused parts or gaps DEL746-750): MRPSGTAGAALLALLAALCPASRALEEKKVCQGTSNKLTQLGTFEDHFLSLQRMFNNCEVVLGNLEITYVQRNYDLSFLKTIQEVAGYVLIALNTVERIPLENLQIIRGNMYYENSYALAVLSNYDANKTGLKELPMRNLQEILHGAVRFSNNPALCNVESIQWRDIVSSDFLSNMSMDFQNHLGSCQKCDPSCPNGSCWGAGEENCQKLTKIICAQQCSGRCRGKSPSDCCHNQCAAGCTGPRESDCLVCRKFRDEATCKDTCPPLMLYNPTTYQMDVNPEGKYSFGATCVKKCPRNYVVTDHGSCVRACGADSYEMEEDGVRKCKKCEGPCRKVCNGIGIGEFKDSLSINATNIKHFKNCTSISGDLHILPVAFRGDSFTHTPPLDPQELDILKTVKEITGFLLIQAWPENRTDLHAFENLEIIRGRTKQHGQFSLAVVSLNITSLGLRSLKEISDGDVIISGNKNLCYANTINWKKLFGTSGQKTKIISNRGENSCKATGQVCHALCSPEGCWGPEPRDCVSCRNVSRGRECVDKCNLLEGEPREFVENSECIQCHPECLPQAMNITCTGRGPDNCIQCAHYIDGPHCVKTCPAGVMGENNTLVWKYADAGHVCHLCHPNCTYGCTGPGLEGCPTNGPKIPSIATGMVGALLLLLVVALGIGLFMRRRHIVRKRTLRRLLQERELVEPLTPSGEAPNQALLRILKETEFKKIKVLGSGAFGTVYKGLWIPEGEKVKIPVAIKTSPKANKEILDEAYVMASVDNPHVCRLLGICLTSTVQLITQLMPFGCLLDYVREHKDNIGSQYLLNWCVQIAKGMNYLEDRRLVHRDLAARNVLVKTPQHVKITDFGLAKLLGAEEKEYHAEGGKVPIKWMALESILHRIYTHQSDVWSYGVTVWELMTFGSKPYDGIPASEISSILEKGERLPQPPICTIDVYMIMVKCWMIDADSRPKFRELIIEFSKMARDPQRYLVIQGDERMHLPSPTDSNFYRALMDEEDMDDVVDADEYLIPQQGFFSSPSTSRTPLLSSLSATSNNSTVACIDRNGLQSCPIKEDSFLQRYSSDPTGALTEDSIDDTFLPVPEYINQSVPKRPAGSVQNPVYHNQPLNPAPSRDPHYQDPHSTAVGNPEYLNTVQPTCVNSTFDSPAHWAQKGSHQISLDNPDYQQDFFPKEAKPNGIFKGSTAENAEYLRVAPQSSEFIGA
How it was run: as §16

[7] = target: T6, EGFR exon 20 SVD Ins D770_N771 (Ba/F3 cells) (Homo sapiens, UniProt P00533, INS770SVD); experiment: Inhibitor activity on EGFR-dependent cell growth (CellTiter-Glo, 72 h), Ba/F3 EGFR exon 20 SVD Ins; conditions: read-out: BaF3 SVD IC50
T6 construct: expressed in transfected cells; host or cells: Ba/F3 (murine pro-B cells), retroviral transduction, puromycin selection, IL3-independent pool
How it was run: as §17

[8] = target: T5, EGFR exon 19del (Ba/F3 cells); experiment: Inhibitor activity on EGFR phosphorylation (pEGFR AlphaLISA, 2 h), Ba/F3 EGFR exon 19del; conditions: read-out: Del19 IC50 (pEGFR)
From the text: as §1, §2, §3, §4, §5, §6, §7, §8, §9, §10, §11, §12, §13, §14, §15

[9] = target: T7, EGFR exon 20 FQEA Ins A763_V764 (Ba/F3 cells) (Homo sapiens, UniProt P00533, INS763FQEA); experiment: Inhibitor activity on EGFR-dependent cell growth (CellTiter-Glo, 72 h), Ba/F3 EGFR exon 20 FQEA Ins; conditions: read-out: BaF3 FQEA IC50
T7 construct: expressed in transfected cells; host or cells: Ba/F3 (murine pro-B cells), retroviral transduction, puromycin selection, IL3-independent pool
T7 sequence (P00533 with tags, fused parts or gaps INS763FQEA): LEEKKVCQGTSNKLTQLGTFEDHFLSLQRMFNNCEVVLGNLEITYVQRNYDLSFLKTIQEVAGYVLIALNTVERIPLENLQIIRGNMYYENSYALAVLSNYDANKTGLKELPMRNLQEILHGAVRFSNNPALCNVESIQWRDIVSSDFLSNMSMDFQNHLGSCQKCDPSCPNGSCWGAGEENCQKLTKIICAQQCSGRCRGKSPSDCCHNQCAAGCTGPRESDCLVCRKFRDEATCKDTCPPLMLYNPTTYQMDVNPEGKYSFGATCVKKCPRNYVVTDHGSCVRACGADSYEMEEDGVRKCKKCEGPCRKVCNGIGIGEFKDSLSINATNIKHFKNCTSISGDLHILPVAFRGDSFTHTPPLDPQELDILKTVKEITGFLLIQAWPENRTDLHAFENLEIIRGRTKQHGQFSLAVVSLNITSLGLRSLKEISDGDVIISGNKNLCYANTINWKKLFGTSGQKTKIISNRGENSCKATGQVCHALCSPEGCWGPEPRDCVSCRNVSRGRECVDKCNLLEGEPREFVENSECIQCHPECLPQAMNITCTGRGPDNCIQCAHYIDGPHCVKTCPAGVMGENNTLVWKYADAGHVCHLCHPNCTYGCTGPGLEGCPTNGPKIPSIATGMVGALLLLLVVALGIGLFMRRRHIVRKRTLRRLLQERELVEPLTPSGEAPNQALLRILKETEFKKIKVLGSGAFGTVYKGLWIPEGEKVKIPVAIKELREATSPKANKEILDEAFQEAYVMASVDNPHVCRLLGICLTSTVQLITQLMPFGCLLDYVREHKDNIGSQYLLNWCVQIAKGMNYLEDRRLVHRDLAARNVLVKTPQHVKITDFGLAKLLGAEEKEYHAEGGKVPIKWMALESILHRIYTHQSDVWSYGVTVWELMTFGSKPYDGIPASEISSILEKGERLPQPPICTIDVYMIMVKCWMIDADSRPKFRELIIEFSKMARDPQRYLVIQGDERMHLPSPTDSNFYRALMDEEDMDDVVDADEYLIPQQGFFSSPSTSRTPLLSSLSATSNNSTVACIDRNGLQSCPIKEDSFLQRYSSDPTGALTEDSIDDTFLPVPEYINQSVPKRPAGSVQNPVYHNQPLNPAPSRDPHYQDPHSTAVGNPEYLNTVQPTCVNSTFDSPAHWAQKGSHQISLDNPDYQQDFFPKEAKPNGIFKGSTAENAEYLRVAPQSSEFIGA
How it was run: as §16

Row | Structure (SMILES) | IC50 [1] [nM] | IC50 [2] [nM] | IC50 (EGFR L858R (Ba/F3 cells) [3]) [nM] | IC50 (EGFR L858R (Ba/F3 cells) [4]) [nM] | IC50 (EGFR WT (Ba/F3 cells)) [nM] | IC50 [5] [nM] | IC50 [6] [nM] | IC50 [7] [nM] | IC50 [8] [nM] | IC50 [9] [nM]
1 | COCC[C@H]1CNC(=O)c2c1[nH]c(-c1ccncn1)c2Nc1cccc(Cl)c1OC [445b] | < 100 | < 100 | < 100 | < 100 | > 1000 | 100 to 1000 | < 100 | 100 to 1000 | < 100 | 100 to 1000
2 | COCC[C@@H]1CNC(=O)c2c1[nH]c(-c1ccncn1)c2Nc1cccc(F)c1OC [Compound 447a] | < 100 | < 100 | < 100 | < 100 | 100 to 1000 | < 100 | < 100 | < 100 | < 100 | < 100
3 | COc1c(Cl)cccc1Nc1c(-c2ccncc2F)[nH]c2c1C(=O)NCC21CCOCC1 [Compound 778, 3′-[(3-chloro-2-methoxyphenyl)amino]-2′-(3-fluoropyridin-4-yl)-5′,6′-dihydro-1′H-spiro[oxane-4,7′-pyrrolo[3,2-c]pyridin]-4′-one] | 100 to 1000 | < 100 | < 100 | < 100 | > 1000 | 100 to 1000 | < 100 | 100 to 1000 | < 100 | 100 to 1000
4 | COc1ncc2nccc(-c3[nH]c4c(c3Nc3cccc(F)c3C)C(=O)NCC4)c2n1 [Compound 794, 3-[(3-fluoro-2-methylphenyl)amino]-2-[2-methoxypyrido[3,2-d]pyrimidin-8-yl]-1H,5H,6H,7H-pyrrolo[3,2-c]pyridin-4-one] | < 100 | < 100 | < 100 | < 100 | 100 to 1000 | < 100 | < 100 | < 100 | < 100 | < 100
5 | COc1c(F)cccc1Nc1c(-c2ccnc3ccc(C)nc23)[nH]c2c1C(=O)NCC2 [Compound 809, 3-[(3-fluoro-2-methoxyphenyl)amino]-2-(6-methyl-1,5-naphthyridin-4-yl)-1H,5H,6H,7H-pyrrolo[3,2-c]pyridin-4-one] | < 100 | < 100 | < 100 | < 100 | 100 to 1000 | < 100 | < 100 | < 100 | < 100 | < 100
6 | COc1c(Cl)cccc1Nc1c(-c2ccncc2F)[nH]c2c1C(=O)NC[C@@H]2CC(F)F [Compound 819, (7S)-3-[(3-chloro-2-methoxyphenyl)amino]-7-(2,2-difluoroethyl)-2-(3-fluoropyridin-4-yl)-1H,5H,6H,7H-pyrrolo[3,2-c]pyridin-4-one] | < 100 | < 100 | < 100 | < 100 | > 1000 | 100 to 1000 | < 100 | 100 to 1000 | < 100 | 100 to 1000
7 | COc1c(Cl)cccc1Nc1c(-c2ccncc2F)[nH]c2c1C(=O)NC[C@H]2CC(F)F [Compound 820, (7R)-3-[(3-chloro-2-methoxyphenyl)amino]-7-(2,2-difluoroethyl)-2-(3-fluoropyridin-4-yl)-1H,5H,6H,7H-pyrrolo[3,2-c]pyridin-4-one] | < 100 | < 100 | < 100 | < 100 | > 1000 | 100 to 1000 | < 100 | 100 to 1000 | < 100 | 100 to 1000
8 | COc1ncc2nccc(-c3[nH]c4c(c3Nc3cccc(F)c3OC)C(=O)NCC4)c2n1 [compound 409] | < 100 | < 100 | < 100 | < 100 | 100 to 1000 | < 100 | < 100 | < 100 | < 100 | < 100
9 | COc1c(Cl)cccc1Nc1c(-c2ccnc3ccc(OCC(F)F)nc23)[nH]c2c1C(=O)NCC2 [compound 733, 3-[(3-chloro-2-methoxyphenyl)amino]-2-[6-(2,2-difluoroethoxy)-1,5-naphthyridin-4-yl]-1H,5H,6H,7H-pyrrolo[3,2-c]pyridin-4-one] | < 100 | < 100 | < 100 | < 100 | 100 to 1000 | < 100 | < 100 | < 100 | < 100 | < 100
10 | COc1c(Cl)cccc1Nc1c(-c2ccncc2F)[nH]c2c1C(=O)NC[C@@]21CCN(CC(F)F)C1 [compound 822] | < 100 | < 100 | < 100 | < 100 | > 1000 | 100 to 1000 | < 100 | < 100 | < 100 | 100 to 1000
